Each structure is given as a SMILES string. In brackets after ≈: the same amount, converted by molar mass.

The source of these data is patent US7186738B2, “Antibacterial oxalidinones” (AstraZeneca AB, priority 2003, dated 2007).

Assay [1] concerns Staphylococcus aureus MRQR (methicillin resistant and quinolone resistant). Nature of the assay: MIC by agar dilution, standard in-vitro test system. The assay is classed as cell-based. The conditions noted are these: inoculum 10^4 CFU/spot, 37° C., 24 hours. The procedure:
(§1) The following results were obtained on a standard in-vitro test system. The activity is described in terms of the minimum inhibitory concentration (MIC) determined by the agar-dilution technique with an inoculum size of 10^4 CFU/spot. Typically, compounds are active in the range 0.01 to 256 μg/ml.
(§2) Staphylococci were tested on agar, using an inoculum of 10^4 CFU/spot and an incubation temperature of 37° C. for 24 hours—standard test conditions for the expression of methicillin resistance.
In general terms: Agar dilution tests growth on a series of plates holding different concentrations.

For assay [2], the system named is Staphylococcus aureus MSQS (methicillin sensitive and quinolone sensitive). Described as above. It is filed as cell-based. As to conditions: inoculum 10^4 CFU/spot, 37° C., 24 hours. On the procedure: as §1, §2
In assay [3] the test system is Streptococcus pneumoniae. The assay is described as above. The assay is classed as cell-based. As to conditions: agar with 5% defibrinated horse blood, 10^4 CFU/spot, 37° C., 5% carbon dioxide, 48 hours. On the procedure: (§3) The following results were obtained on a standard in-vitro test system. The activity is described in terms of the minimum inhibitory concentration (MIC) determined by the agar-dilution technique with an inoculum size of 10^4 CFU/spot. Typically, compounds are active in the range 0.01 to 256 μg/ml. Streptococci and enterococci were tested on agar supplemented with 5% defibrinated horse blood, an inoculum of 10^4 CFU/spot and an incubation temperature of 37° C. in an atmosphere of 5% carbon dioxide for 48 hours—blood is required for the growth of some of the test organisms.

Assay [4] deals with Enterococcus faecium. The description is as above. The conditions noted are these: agar with 5% defibrinated horse blood, 10^4 CFU/spot, 37° C., 5% carbon dioxide, 48 hours. The assay is classed as cell-based. On the procedure:
as §3

The subject of assay [5] is Moraxella catarrhalis. Described as above. The assay is classed as cell-based. As to conditions: inoculum 10^4 CFU/spot. The procedure: as §1
Assay [6] addresses T1, MAO-A (Homo sapiens, UniProt P21397).
T1 construct: made in house; host or cells: yeast
T1 sequence (P21397 1-527): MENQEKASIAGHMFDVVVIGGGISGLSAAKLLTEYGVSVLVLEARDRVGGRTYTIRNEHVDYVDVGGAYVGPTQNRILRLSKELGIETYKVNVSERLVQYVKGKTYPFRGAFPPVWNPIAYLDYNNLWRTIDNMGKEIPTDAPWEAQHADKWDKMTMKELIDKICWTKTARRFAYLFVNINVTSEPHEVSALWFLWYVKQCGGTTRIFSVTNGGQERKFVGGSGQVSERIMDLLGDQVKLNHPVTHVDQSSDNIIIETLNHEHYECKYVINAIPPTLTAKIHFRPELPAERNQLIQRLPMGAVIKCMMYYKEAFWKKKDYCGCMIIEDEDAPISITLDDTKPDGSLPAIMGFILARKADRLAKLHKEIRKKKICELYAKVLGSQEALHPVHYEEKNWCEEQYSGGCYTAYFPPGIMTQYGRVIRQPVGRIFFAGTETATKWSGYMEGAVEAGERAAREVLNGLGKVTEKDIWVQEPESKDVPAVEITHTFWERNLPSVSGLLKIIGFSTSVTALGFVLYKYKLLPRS
Nature of the assay: MAO-A standard in-vitro assay, human liver enzyme expressed in yeast. As to conditions: read-out: Ki value against MAO-A (converted). It is filed as biochemical. On the procedure:
The activity of the compounds of the invention against MAO-A was tested using a standard in-vitro assay based on human liver enzyme expressed in yeast as described in Biochem. Biophys. Res. Commun. 1991, 181, 1084–1088.

Regarding `Cc1cc(-c2ccc(N3C[C@H](Cn4ccnn4)OC3=O)cc2F)on1` [Example 1, (5R)-3-[3-Fluoro-4-(3-methylisoxazol-5-yl)phenyl]-5-(1H-1,2,3-triazol-1-ylmethyl)-1,3-oxazolidin-2-one], the MIC stood at 1 µg/mL (≈ 2.91 µM) in assay [1]; 0.5 µg/mL (≈ 1.46 µM) in assay [2]; 0.25 µg/mL (≈ 0.728 µM) in assay [3]; 0.5 µg/mL (≈ 1.46 µM) in assay [4]; 1 µg/mL (≈ 2.91 µM) in assay [5].

On to `CCOC(=O)c1cc(-c2ccc(N3C[C@H](Cn4ccnn4)OC3=O)cc2F)on1` [Example 2, Ethyl 5-{2-fluoro-4-[(5R)-2-oxo-5-(1H-1,2,3-triazol-1-ylmethyl)-1,3-oxazolidin-3-yl]phenyl}isoxazole-3-carboxylate], for which the Ki in assay [6] is 47.3 µM.

`O=C1O[C@@H](Cn2ccnn2)CN1c1ccc(-c2c[nH]nn2)c(F)c1` [Example 7, (5R)-3-[3-Fluoro-4-(1H-1,2,3-triazol-4-yl)phenyl]-5-(1H-1,2,3-triazol-1-ylmethyl)-1,3-oxazolidin-2-one]: the Ki in assay [6] was 437 µM.

As for `CCOC(=O)c1cc(-c2ccc(N3C[C@H](CNC(C)=O)OC3=O)cc2F)on1` [acetamide analogue of Example 2, reference compound], the Ki in assay [6] was 15.3 µM.

Consider `CC(=O)NC[C@H]1CN(c2ccc(-c3c[nH]nn3)c(F)c2)C(=O)O1` [acetamide analogue of Example 7, reference compound], for which the inhibitory constant (Ki) in assay [6] was 106 µM.

Usually MIC stands for the lowest concentration that inhibits growth of the organism. Low readings indicate a more susceptible organism, high ones a less susceptible organism. As a reminder, the Ki is the dissociation constant of the complex between target and ligand, obtained from inhibition or displacement.
